# Assay results from publication PMC11464771, “Elucidation of Spartina dimethylsulfoniopropionate synthesis genes enables engineering of stress tolerant plants” (Nature Communications, 2024).
# B1: SaSDC (SaODC), S-methylmethionine decarboxylase (Sporobolus anglicus) (protein)
# chain: MVGGSPMPMQAMLVVPGVKDRKVLSFKGDALKENDAIRSITSSTPAQRSAFHVLDLAKVVDLYRAWRRALPNVRPYYAVKCNSEPALLGALAALGAGFDCASHAEIDAVLALGVHPSSIVYANPCKPESHLEHAAAAGVNLTTYDSEEEVAKVRRCHPRCELLLRIKGPDDEEAQCDLGIKYGALADEVVPLLRAAQRAGVPVAGVAFNVGSPASRMDLYRDAIEAARAAFDAAAGLGMPPMRVLDIGGGFTAGATFEEAAAVINDALARHFGDLPYVEVISEPGRYFVKKAITLAARVIGKRTRGEVREYWIDDGVYGSFNCVIMDHYKPRPRPLVTPRPGEAKYTSTVFGPTCDSQDMVVTGYKLPEMSVGDWLVFDDMGAYTTAAGSKFNGFDTSDIKIYLAYST
# notes: full-length ORF from transcriptome, synthetic gene, pMALc2x (MBP fusion), E. coli BL21(DE3), amylose resin
# Assays:
# MMT from Hordeum vulgare = molecular target: T1, MMT from Hordeum vulgare (Hordeum vulgare, UniProt Q9MBC2); assay: in vitro MMT assay; type: biochemical; conditions: 1 mM L-methionine, 1 mM S-adenosylmethionine, Tris-HCl 20 mM pH 7.2, DTT 1 mM, 25 °C
# T1 construct: gene MMT1; recombinant, probably pMALc2x (MBP fusion), E. coli
# T1 sequence (Q9MBC2 1-1088): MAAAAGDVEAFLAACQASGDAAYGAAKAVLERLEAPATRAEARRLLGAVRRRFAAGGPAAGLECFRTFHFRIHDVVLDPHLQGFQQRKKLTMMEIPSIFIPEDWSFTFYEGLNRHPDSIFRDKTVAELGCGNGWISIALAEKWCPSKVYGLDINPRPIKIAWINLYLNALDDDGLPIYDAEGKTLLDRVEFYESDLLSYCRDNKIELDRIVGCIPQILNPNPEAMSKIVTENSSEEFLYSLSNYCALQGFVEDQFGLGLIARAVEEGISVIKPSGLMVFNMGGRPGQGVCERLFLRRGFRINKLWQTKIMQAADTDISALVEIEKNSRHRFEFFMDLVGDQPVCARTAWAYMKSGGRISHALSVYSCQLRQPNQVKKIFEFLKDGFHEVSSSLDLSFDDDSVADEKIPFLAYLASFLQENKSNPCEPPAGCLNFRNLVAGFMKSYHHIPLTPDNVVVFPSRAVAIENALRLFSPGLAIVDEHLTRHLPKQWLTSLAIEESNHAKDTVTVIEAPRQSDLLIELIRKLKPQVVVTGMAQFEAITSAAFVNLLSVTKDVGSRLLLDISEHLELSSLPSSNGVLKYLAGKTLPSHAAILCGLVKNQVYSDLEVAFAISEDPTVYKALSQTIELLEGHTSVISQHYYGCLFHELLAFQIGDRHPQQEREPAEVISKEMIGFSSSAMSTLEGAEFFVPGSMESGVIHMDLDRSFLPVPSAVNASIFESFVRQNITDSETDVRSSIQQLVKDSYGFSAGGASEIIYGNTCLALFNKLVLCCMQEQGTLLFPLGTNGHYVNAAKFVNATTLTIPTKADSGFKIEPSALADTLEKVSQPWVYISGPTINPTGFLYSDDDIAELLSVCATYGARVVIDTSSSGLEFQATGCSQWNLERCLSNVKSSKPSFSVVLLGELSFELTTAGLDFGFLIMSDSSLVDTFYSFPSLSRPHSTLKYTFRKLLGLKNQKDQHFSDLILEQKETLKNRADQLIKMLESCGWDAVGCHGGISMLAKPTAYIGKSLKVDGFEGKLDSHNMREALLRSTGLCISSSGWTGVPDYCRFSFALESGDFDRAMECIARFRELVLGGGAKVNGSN
# [1] = molecular target: T2, MMT from Arabidopsis thaliana (Arabidopsis thaliana, UniProt Q9LTB2); assay: in vitro MMT assay; type: biochemical; conditions: 1 mM L-methionine, 1 mM S-adenosylmethionine, Tris-HCl 20 mM pH 7.2, DTT 1 mM, 25 °C
# T2 construct: gene MMT1; recombinant, probably pMALc2x (MBP fusion), E. coli
# T2 sequence (Q9LTB2 2-1071): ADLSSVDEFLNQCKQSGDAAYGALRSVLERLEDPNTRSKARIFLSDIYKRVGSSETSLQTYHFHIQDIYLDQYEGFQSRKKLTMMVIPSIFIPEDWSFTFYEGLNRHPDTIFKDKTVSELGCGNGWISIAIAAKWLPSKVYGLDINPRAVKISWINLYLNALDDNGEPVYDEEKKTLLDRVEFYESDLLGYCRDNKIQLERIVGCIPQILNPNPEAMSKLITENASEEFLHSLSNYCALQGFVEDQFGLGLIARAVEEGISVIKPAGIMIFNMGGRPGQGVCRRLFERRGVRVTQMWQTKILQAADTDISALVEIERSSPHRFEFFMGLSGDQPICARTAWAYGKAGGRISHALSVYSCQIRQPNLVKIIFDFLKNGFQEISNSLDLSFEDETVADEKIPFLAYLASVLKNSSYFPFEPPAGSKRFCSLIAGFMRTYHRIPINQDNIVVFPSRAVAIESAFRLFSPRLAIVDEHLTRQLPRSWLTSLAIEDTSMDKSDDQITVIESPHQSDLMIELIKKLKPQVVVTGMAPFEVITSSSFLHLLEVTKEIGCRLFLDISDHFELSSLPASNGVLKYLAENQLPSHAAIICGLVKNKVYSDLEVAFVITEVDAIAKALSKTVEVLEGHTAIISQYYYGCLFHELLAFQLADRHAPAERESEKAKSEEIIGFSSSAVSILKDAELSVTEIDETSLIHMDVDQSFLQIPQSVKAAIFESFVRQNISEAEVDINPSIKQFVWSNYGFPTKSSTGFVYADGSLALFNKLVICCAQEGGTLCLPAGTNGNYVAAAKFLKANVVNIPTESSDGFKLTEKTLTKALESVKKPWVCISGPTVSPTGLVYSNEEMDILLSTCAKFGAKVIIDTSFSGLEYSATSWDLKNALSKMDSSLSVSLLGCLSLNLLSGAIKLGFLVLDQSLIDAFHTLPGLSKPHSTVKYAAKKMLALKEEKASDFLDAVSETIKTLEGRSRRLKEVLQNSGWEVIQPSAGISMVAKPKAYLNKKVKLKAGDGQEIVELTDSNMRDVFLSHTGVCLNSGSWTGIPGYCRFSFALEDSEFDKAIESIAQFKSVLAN
# [2] = substrate: C[S+](C)CC[C@H](N)C(=O)O; assay: NMR initial rates of DMSP-amine formation; type: biochemical, Sporobolus anglicus; conditions: Tris-HCl 20 mM pH 7.2, 0.1 mM pyridoxal 5'-phosphate, 25 °C
molecule,measurement,setting,value
CSCC[C@H](N)C(=O)O [L-methionine],in vitro MMT assay,MMT from Hordeum vulgare,plant MMTs from Arabidopsis thaliana and Hordeum vulgare
same,in vitro MMT assay,[1],SaMMT1 in vitro activity was comparable to previously characterised plant MMTs from Arabidopsis thaliana
B1,Km,[2],2130 ± 200 µM
